# Patent US11571411B2, “Use of a bisamide derivative of malonic acid for treating allergic and other diseases in humans and animals” (PHARMENTERPRISES ALLERGY LLC, priority 2018, dated 2023)
# Test system: histamine-induced nasal congestion model
# Test: Histamine-induced nasal congestion model in dogs, oral administration
# Format: in vivo, Beagle dogs
# Details: for Volume of the nasal cavity, right nostril / Volume of the nasal cavity, left nostril: oral once 30 minutes before histamine
# Experimental: A histamine-induced nasal congestion model in dogs was performed according to the standard procedure [Tiniakov R. L., Tiniakova O. P., McLeod R. L., Hey J. A., Yeates D. B. Canine model of nasal congestion and allergic rhinitis//J Appl Physiol. 2003. V.94(5). P.1821-1828]. Beagle dogs were injected in the nasal cavity with a 5% histamine solution in a volume of 250 μl/nostril. The volume of the nasal cavity of the right and left nostrils was measured using a rhinometer before and 5, 10, 15, 20, 30, 40, 50 and 60 minutes after administration of histamine. Three experiments were performed, in which Compound I was administered orally once at different times: 1) 30 minutes before administration of histamine; 2) 1 hour before administration of histamine; and 3) 6 hours before administration of histamine, and one experiment was performed, in which Compound I was administered orally once daily for 14 days, the last administration was carried out 1 hour before administration of histamine.
# [1] = 0.005 mg/kg, 20 minutes after histamine
# [2] = 0.005 mg/kg, 30 minutes after histamine
# [3] = 0.005 mg/kg, 40 minutes after histamine
# [4] = 0.005 mg/kg, 50 minutes after histamine
# [5] = 0.005 mg/kg, 60 minutes after histamine
# [6] = 0.005 mg/kg, before histamine administration
# [7] = 0.05 mg/kg, 5 minutes after histamine
# [8] = 0.05 mg/kg, 10 minutes after histamine
# [9] = 0.05 mg/kg, 15 minutes after histamine
# [10] = 0.05 mg/kg, 20 minutes after histamine
# [11] = 0.05 mg/kg, 30 minutes after histamine
# [12] = 0.05 mg/kg, 40 minutes after histamine
# [13] = 0.05 mg/kg, 50 minutes after histamine
# [14] = 0.05 mg/kg, 60 minutes after histamine
# [15] = 0.05 mg/kg, before histamine administration
# [16] = 0.54 mg/kg, 5 minutes after histamine
# [17] = 0.54 mg/kg, 10 minutes after histamine
# [18] = 0.54 mg/kg, 15 minutes after histamine
# [19] = 0.54 mg/kg, 20 minutes after histamine
# [20] = 0.54 mg/kg, 30 minutes after histamine
# [21] = 0.54 mg/kg, 40 minutes after histamine
# [22] = 0.54 mg/kg, 50 minutes after histamine
# [23] = 0.54 mg/kg, 60 minutes after histamine
# [24] = 0.54 mg/kg, before histamine administration
smiles,measurement,setting,value
"O=C(CC(=O)NCCc1cnc[nH]1)NCCc1cnc[nH]1 [Compound I, N,N′-bis(2-(1H-imidazol-5-yl)ethyl)malonamide]","Volume of the nasal cavity, right nostril","0.005 mg/kg, 15 minutes after histamine",2.1 ± 0.2$^ cm^3
same,"Volume of the nasal cavity, left nostril",[1],1.9 ± 0.3 cm^3
same,"Volume of the nasal cavity, right nostril",[1],2.0 ± 0.2$^ cm^3
same,"Volume of the nasal cavity, left nostril",[2],2.5 ± 0.1&$ cm^3
same,"Volume of the nasal cavity, right nostril",[2],2.8 ± 0.2&$ cm^3
same,"Volume of the nasal cavity, left nostril",[3],3.9 ± 0.1& cm^3
same,"Volume of the nasal cavity, right nostril",[3],3.8 ± 0.2& cm^3
same,"Volume of the nasal cavity, left nostril",[4],3.9 ± 0.1& cm^3
same,"Volume of the nasal cavity, right nostril",[4],4.0 ± 0.2& cm^3
same,"Volume of the nasal cavity, left nostril",[5],4.0 ± 0.1 cm^3
same,"Volume of the nasal cavity, right nostril",[5],3.5 ± 0.1$ cm^3
same,"Volume of the nasal cavity, left nostril",[6],4.3 ± 0.3 cm^3
same,"Volume of the nasal cavity, right nostril",[6],4.6 ± 0.3 cm^3
same,"Volume of the nasal cavity, left nostril",[7],3.4 ± 0.1$ cm^3
same,"Volume of the nasal cavity, right nostril",[7],3.3 ± 0.2$ cm^3
same,"Volume of the nasal cavity, left nostril",[8],2.5 ± 0.1$ cm^3
same,"Volume of the nasal cavity, right nostril",[8],2.4 ± 0.2$ cm^3
same,"Volume of the nasal cavity, left nostril",[9],2.8 ± 0.1&$ cm^3
same,"Volume of the nasal cavity, right nostril",[9],2.6 ± 0.2&$ cm^3
same,"Volume of the nasal cavity, left nostril",[10],3.3 ± 0.1&$ cm^3
same,"Volume of the nasal cavity, right nostril",[10],3.3 ± 0.3&$ cm^3
same,"Volume of the nasal cavity, left nostril",[11],4.1 ± 0.1& cm^3
same,"Volume of the nasal cavity, right nostril",[11],3.8 ± 0.1& cm^3
same,"Volume of the nasal cavity, left nostril",[12],4.2 ± 0.3& cm^3
same,"Volume of the nasal cavity, right nostril",[12],4.2 ± 0.2& cm^3
same,"Volume of the nasal cavity, left nostril",[13],4.2 ± 0.1& cm^3
same,"Volume of the nasal cavity, right nostril",[13],4.5 ± 0.1& cm^3
same,"Volume of the nasal cavity, left nostril",[14],4.3 ± 0.1 cm^3
same,"Volume of the nasal cavity, right nostril",[14],4.5 ± 0.3 cm^3
same,"Volume of the nasal cavity, left nostril",[15],4.3 ± 0.2 cm^3
same,"Volume of the nasal cavity, right nostril",[15],4.2 ± 0.2 cm^3
same,"Volume of the nasal cavity, left nostril",[16],2.9 ± 0.1$ cm^3
same,"Volume of the nasal cavity, right nostril",[16],3.0 ± 0.2$ cm^3
same,"Volume of the nasal cavity, left nostril",[17],2.6 ± 0.1$ cm^3
same,"Volume of the nasal cavity, right nostril",[17],2.5 ± 0.1$ cm^3
same,"Volume of the nasal cavity, left nostril",[18],3.7 ± 0.3&$ cm^3
same,"Volume of the nasal cavity, right nostril",[18],3.8 ± 0.1&$ cm^3
same,"Volume of the nasal cavity, left nostril",[19],3.8 ± 0.2& cm^3
same,"Volume of the nasal cavity, right nostril",[19],3.7 ± 0.1&$ cm^3
same,"Volume of the nasal cavity, left nostril",[20],3.8 ± 0.1&$ cm^3
same,"Volume of the nasal cavity, right nostril",[20],3.8 ± 0.2&$ cm^3
same,"Volume of the nasal cavity, left nostril",[21],4.2 ± 0.3& cm^3
same,"Volume of the nasal cavity, right nostril",[21],4.2 ± 0.3& cm^3
same,"Volume of the nasal cavity, left nostril",[22],3.9 ± 0.2$ cm^3
same,"Volume of the nasal cavity, right nostril",[22],4.0 ± 0.3^ cm^3
same,"Volume of the nasal cavity, left nostril",[23],4.0 ± 0.1$ cm^3
same,"Volume of the nasal cavity, right nostril",[23],4.2 ± 0.3 cm^3
same,"Volume of the nasal cavity, left nostril",[24],4.5 ± 0.1 cm^3
same,"Volume of the nasal cavity, right nostril",[24],4.5 ± 0.3 cm^3
same,Tolerance,"oral once daily for 14 days, dogs",not generated
same,duration of the effect,"single oral administration, dogs",at least 6 hours
